Assay results taken from patent US20240262826A1, “WILD TYPE KIT INHIBITORS” (Blueprint Medicines Corporation, priority 2022, published 2024).

The compounds below were run against wild type c-kit (Homo sapiens (Human), UniProt P10721) (assay: MSD Phospho c-Kit (Tyr721) Assay Whole Cell Lysate Kit in SCF-stimulated M-07e cells (pKIT assay, marked *)). Settings: Meso Scale Discovery (MSD) assay (values marked *).
Assay type: cell-based
Description: The ability of compounds of the disclosure (described herein as test compounds) to inhibit autophosphorylation of wild type c-kit was measures using either a PathScan phospho c-kit (Tyr719) sandwich ELISA (CST #7298) or a Phospho c-Kit (Tyr721) Assay Whole Cell Lysate Kit (MSD: 515DPD/catalog number K15119D-2).
For the MSD Phospho c-Kit (Tyr721) Assay Whole Cell Lysate Kit: M-07e cells were maintained in Iscove's Modified Dulbecco's Medium (IMDM) media supplemented with 10% FBS, 5 ng/ml granulocyte-macrophage colony-stimulating factor (GM-CSF) and 100 units/mL Penicillin-Streptomycin, and grown in a 37° C., 5% CO2 in a humidified tissue culture incubator. M-07e cells were washed with phenol red-free, serum-free, GM-CSF-free IMDM and seeded in the same media at 100,000 cells well in a volume of 50 ul in a 96-well U-bottom plate. The cells were incubated for 4 hours, followed by the addition of test compound at a final DMSO concentration of 0.25% for 60 min at 37° C. to generate an 8-point dose concentration series of test compounds. The cells were stimulated with 50 ng/ml human SCF for 10 min at room temperature. Cells were then lysed by the addition of 16.5 ul of PerkinElmer 5× AlphaLISA Lysis Buffer supplemented with Cell Signaling Technologies protease/phosphatase inhibitor. Lysis was encouraged by shaking at 4° C. for 30 minutes.
25 ul of lysate was transferred to the MSD plate and the plate was shaken at 700 rpm at room temperature for one hour, followed by washing 3 times with Tris wash buffer. Next, 25 ul of detection antibody solution (diluted from 50× stock in antibody dilution buffer) was added. After shaking at 700 rpm at room temperature for one hour, the plate was washed 3 times with Tris wash buffer. The plate was then read on MSD Sector Imager immediately after 150 ul of reading buffer added to each well.
An IC50 was calculated using a 4-parameter logistic nonlinear regression.

Chain of wild type c-kit (P10721 26-976): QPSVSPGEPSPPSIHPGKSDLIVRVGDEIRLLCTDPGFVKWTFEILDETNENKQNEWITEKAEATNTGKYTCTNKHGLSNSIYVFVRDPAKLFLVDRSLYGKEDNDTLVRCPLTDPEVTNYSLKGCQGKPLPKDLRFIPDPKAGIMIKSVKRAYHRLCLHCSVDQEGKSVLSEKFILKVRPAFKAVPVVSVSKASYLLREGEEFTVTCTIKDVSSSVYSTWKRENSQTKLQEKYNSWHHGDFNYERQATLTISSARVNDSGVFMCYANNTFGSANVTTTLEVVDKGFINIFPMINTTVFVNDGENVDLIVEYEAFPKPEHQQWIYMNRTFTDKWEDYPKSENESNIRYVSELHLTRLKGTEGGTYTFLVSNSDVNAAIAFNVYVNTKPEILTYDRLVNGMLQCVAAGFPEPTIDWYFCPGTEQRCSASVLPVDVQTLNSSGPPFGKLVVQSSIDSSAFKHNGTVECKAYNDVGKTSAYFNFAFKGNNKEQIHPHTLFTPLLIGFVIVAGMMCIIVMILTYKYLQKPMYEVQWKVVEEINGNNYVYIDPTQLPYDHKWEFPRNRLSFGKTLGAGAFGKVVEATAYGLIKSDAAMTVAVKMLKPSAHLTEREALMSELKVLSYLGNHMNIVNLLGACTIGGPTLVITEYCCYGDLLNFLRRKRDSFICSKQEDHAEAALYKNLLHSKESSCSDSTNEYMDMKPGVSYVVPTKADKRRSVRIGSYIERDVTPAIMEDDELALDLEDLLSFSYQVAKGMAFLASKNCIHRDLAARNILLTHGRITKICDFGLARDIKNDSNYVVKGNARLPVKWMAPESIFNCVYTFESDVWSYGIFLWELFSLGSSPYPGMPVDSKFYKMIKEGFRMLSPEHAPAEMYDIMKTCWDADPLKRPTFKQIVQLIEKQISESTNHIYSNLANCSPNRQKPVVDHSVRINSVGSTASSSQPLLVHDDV

Row | Compound | IC50 [nM]
1 | Cc1ccc(-c2nnn(C3CC4(CCC4)C3)n2)cc1NC(=O)c1cnn2ccccc12 [Example 4, N-(2-methyl-5-(2-(spiro[3.3]heptan-2-yl)-2H-tetrazol-5-yl)phenyl)pyrazolo[1,5-a]pyridine-3-carboxamide] | 2.6
2 | Cc1ccc(-c2nnn(C3CC(F)(F)C3)n2)cc1NC(=O)c1cnn2ccccc12 [Example 5, N-(5-(2-(3,3-difluorocyclobutyl)-2H-tetrazol-5-yl)-2-methylphenyl)pyrazolo[1,5-a]pyridine-3-carboxamide] | 5
3 | Cc1ccc(-c2nnn(CC3CC3(F)F)n2)cc1NC(=O)c1cnn2ccccc12 (centres unmarked) [Example 6, N-(5-(2-((2,2-difluorocyclopropyl)methyl)-2H-tetrazol-5-yl)-2-methylphenyl)pyrazolo[1,5-a]pyridine-3-carboxamide] | 4.5
4 | Cc1ccc(-c2nnn(C3CCC3)n2)cc1NC(=O)c1cnn2ccccc12 [Example 8, N-(5-(2-cyclobutyl-2H-tetrazol-5-yl)-2-methylphenyl)pyrazolo[1,5-a]pyridine-3-carboxamide] | 2.7
5 | Cc1ccc(-c2nnn(Cc3ccccc3F)n2)cc1NC(=O)c1cnn2ccccc12 [Example 13, N-(5-(2-(2-fluorobenzyl)-2H-tetrazol-5-yl)-2-methylphenyl)pyrazolo[1,5-a]pyridine-3-carboxamide] | 1.6
6 | O=C(Nc1cc(-c2nnn(CCOCC(F)(F)F)n2)ccc1Cl)c1cnn2ccccc12 [Example 22, N-(2-chloro-5-(2-(2-(2,2,2-trifluoroethoxy)ethyl)-2H-tetrazol-5-yl)phenyl)pyrazolo[1,5-a]pyridine-3-carboxamide] | 1.9
7 | Cc1ccc(-c2nnn([C@H]3C[C@@H](C(F)(F)F)C3)n2)cc1NC(=O)c1cnn2ccccc12 [Example 23, N-(2-methyl-5-(2-((1s,3s)-3-(trifluoromethyl)cyclobutyl)-2H-tetrazol-5-yl)phenyl)pyrazolo[1,5-a]pyridine-3-carboxamide or N-(2-methyl-5-(2-((1r,3r)-3-(trifluoromethyl)cyclobutyl)-2H-tetrazol-5-yl)phenyl)pyrazolo[1,5-a]pyridine-3-carboxamide] | 2.6
8 | Cc1ccc(-c2nnn([C@H]3C[C@H](C(F)(F)F)C3)n2)cc1NC(=O)c1cnn2ccccc12 [Example 24, N-(2-methyl-5-(2-((1r,3r)-3-(trifluoromethyl)cyclobutyl)-2H-tetrazol-5-yl)phenyl)pyrazolo[1,5-a]pyridine-3-carboxamide or N-(2-methyl-5-(2-((1s,3s)-3-(trifluoromethyl)cyclobutyl)-2H-tetrazol-5-yl)phenyl)pyrazolo[1,5-a]pyridine-3-carboxamide] | 2.1
9 | Cc1ccc(-c2nnn(C3CC3)n2)cc1NC(=O)c1cnn2ccccc12 [Example 28, N-(5-(2-cyclopropyl-2H-tetrazol-5-yl)-2-methylphenyl)pyrazolo[1,5-a]pyridine-3-carboxamide] | 9.1
10 | Cc1ccc(-c2nnn(CC34CC(F)(C3)C4)n2)cc1NC(=O)c1cnn2ccccc12 [Example 30, N-(5-(2-((3-fluorobicyclo[1.1.1]pentan-1-yl)methyl)-2H-tetrazol-5-yl)-2-methylphenyl)pyrazolo[1,5-a]pyridine-3-carboxamide] | 2.7
11 | Cc1ccc(-c2nnn(C3CCOCC3)n2)cc1NC(=O)c1cnn2ccccc12 [Example 31, N-(2-methyl-5-(2-(tetrahydro-2H-pyran-4-yl)-2H-tetrazol-5-yl)phenyl)pyrazolo[1,5-a]pyridine-3-carboxamide] | 8.3
12 | Cc1ccc(-c2nnn(C3CC(F)C3)n2)cc1NC(=O)c1cnn2ccccc12 (centres unmarked) [Example 32, N-(5-(2-(3-fluorocyclobutyl)-2H-tetrazol-5-yl)-2-methylphenyl)pyrazolo[1,5-a]pyridine-3-carboxamide] | 2.5
13 | Cc1ccc(-c2nnn([C@@H](C)c3ccccc3F)n2)cc1NC(=O)c1cnn2ccccc12 [Example 33, (S)-N-(5-(2-(1-(2-fluorophenyl)ethyl)-2H-tetrazol-5-yl)-2-methylphenyl)pyrazolo[1,5-a]pyridine-3-carboxamide] | 2.7
14 | Cc1ccc(-c2nnn(CC3CCCCO3)n2)cc1NC(=O)c1cnn2ccccc12 (centres unmarked) [Example 34, N-(2-methyl-5-(2-((tetrahydro-2H-pyran-2-yl)methyl)-2H-tetrazol-5-yl)phenyl)pyrazolo[1,5-a]pyridine-3-carboxamide] | 9.5
15 | CO[C@H]1C[C@@H](n2nnc(-c3ccc(C)c(NC(=O)c4cnn5ccccc45)c3)n2)C1 [Example 35, N-(5-(2-((1s,3s)-3-methoxycyclobutyl)-2H-tetrazol-5-yl)-2-methylphenyl)pyrazolo[1,5-a]pyridine-3-carboxamide] | 3.8
16 | Cc1ccc(-c2nnn(C3CC(F)(F)C3)n2)cc1NC(=O)c1cnn2ccc(-c3cnn(CCO)c3)cc12 [Example 46, N-(5-(2-(3,3-difluorocyclobutyl)-2H-tetrazol-5-yl)-2-methylphenyl)-5-(1-(2-hydroxyethyl)-1H-pyrazol-4-yl)pyrazolo[1,5-a]pyridine-3-carboxamide] | 0.6

Continued, values first:

Row | IC50 [nM] | Compound
17 | 1.1 | Cc1ccc(-c2nnn(C[C@H]3CC3(F)F)n2)cc1NC(=O)c1cnn2ccc(-c3cn[nH]c3)cc12 (single isomer, unassigned) [Example 55, (R)—N-(5-(2-((2,2-difluorocyclopropyl)methyl)-2H-tetrazol-5-yl)-2-methylphenyl)-5-(1H-pyrazol-4-yl)pyrazolo[1,5-a]pyridine-3-carboxamide or (S)—N-(5-(2-((2,2-difluorocyclopropyl)methyl)-2H-tetrazol-5-yl)-2-methylphenyl)-5-(1H-pyrazol-4-yl)pyrazolo[1,5-a]pyridine-3-carboxamide]
18 | 1.1 | Cc1ccc(-c2nnn(C[C@@H]3CC3(F)F)n2)cc1NC(=O)c1cnn2ccc(-c3cn[nH]c3)cc12 (single isomer, unassigned) [Example 56, (S)—N-(5-(2-((2,2-difluorocyclopropyl)methyl)-2H-tetrazol-5-yl)-2-methylphenyl)-5-(1H-pyrazol-4-yl)pyrazolo[1,5-a]pyridine-3-carboxamide or (R)—N-(5-(2-((2,2-difluorocyclopropyl)methyl)-2H-tetrazol-5-yl)-2-methylphenyl)-5-(1H-pyrazol-4-yl)pyrazolo[1,5-a]pyridine-3-carboxamide]
19 | 3.9 | Cc1ccc(-c2nnn(C3CC(F)(F)C3)n2)cc1NC(=O)c1cnn2ccc(N3CCOCC3)cc12 [Example 79, N-(5-(2-(3,3-difluorocyclobutyl)-2H-tetrazol-5-yl)-2-methylphenyl)-5-morpholinopyrazolo[1,5-a]pyridine-3-carboxamide]
20 | 3.6 | Cc1ccc(-n2nnc(C3CC3)n2)cc1NC(=O)c1cnn2ccccc12 [Example 152, N-(5-(5-cyclopropyl-2H-tetrazol-2-yl)-2-methylphenyl)pyrazolo[1,5-a]pyridine-3-carboxamide]
21 | 5.7 | Cc1ccc(-c2nnn(CCOCC(F)(F)F)n2)cc1NC(=O)c1cnn2ccccc12 [Example 158, N-(2-methyl-5-(2-(2-(2,2,2-trifluoroethoxy)ethyl)-2H-tetrazol-5-yl)phenyl)pyrazolo[1,5-a]pyridine-3-carboxamide]
22 | 4 | Cc1ccc(-c2nnn(C3CN(S(=O)(=O)C(F)(F)F)C3)n2)cc1NC(=O)c1cnn2ccccc12 [Example 182]
23 | 6.2 | CS(=O)(=O)N1CC(c2nnn(-c3ccc(Cl)c(NC(=O)c4cnn5ccccc45)c3)n2)C1 [Example 187]
24 | 2.9 | Cc1ccc(-n2nnc(C3CN(S(=O)(=O)C4CC4)C3)n2)cc1NC(=O)c1cnn2ccccc12 [Example 188, N-(5-(5-(1-(cyclopropylsulfonyl)azetidin-3-yl)-2H-tetrazol-2-yl)-2-methylphenyl)pyrazolo[1,5-a]pyridine-3-carboxamide]
25 | 4.9 | COCCS(=O)(=O)N1CC(c2nnn(-c3ccc(C)c(NC(=O)c4cnn5ccccc45)c3)n2)C1 [Example 189, N-(5-(5-(1-((2-methoxyethyl)sulfonyl)azetidin-3-yl)-2H-tetrazol-2-yl)-2-methylphenyl)pyrazolo[1,5-a]pyridine-3-carboxamide]
26 | 5.2 | COC(=O)N1CC(c2cnn(-c3ccc(Cl)c(NC(=O)c4cnn5ccccc45)c3)n2)C1 [Example 193]
27 | 11.6 | COC(=O)N1CC(c2nnn(-c3ccc(Cl)c(NC(=O)c4cnn5ccccc45)c3)n2)C1 [Example 194]

The compounds below were run against human P-glycoprotein (P-gp, MDR1) (Homo sapiens (Human), UniProt P08183) (assay: MDCK-MDR1 cell monolayer drug transport assay (P-gp efflux ratio)). Settings: pH 7.4, MDCK-MDR1 cells, 1 uM concentration of compound, read-out: Pgp Efflux Ratio, 1 uM.
Chain of human P-glycoprotein (P-gp, MDR1) (P08183 whole entry): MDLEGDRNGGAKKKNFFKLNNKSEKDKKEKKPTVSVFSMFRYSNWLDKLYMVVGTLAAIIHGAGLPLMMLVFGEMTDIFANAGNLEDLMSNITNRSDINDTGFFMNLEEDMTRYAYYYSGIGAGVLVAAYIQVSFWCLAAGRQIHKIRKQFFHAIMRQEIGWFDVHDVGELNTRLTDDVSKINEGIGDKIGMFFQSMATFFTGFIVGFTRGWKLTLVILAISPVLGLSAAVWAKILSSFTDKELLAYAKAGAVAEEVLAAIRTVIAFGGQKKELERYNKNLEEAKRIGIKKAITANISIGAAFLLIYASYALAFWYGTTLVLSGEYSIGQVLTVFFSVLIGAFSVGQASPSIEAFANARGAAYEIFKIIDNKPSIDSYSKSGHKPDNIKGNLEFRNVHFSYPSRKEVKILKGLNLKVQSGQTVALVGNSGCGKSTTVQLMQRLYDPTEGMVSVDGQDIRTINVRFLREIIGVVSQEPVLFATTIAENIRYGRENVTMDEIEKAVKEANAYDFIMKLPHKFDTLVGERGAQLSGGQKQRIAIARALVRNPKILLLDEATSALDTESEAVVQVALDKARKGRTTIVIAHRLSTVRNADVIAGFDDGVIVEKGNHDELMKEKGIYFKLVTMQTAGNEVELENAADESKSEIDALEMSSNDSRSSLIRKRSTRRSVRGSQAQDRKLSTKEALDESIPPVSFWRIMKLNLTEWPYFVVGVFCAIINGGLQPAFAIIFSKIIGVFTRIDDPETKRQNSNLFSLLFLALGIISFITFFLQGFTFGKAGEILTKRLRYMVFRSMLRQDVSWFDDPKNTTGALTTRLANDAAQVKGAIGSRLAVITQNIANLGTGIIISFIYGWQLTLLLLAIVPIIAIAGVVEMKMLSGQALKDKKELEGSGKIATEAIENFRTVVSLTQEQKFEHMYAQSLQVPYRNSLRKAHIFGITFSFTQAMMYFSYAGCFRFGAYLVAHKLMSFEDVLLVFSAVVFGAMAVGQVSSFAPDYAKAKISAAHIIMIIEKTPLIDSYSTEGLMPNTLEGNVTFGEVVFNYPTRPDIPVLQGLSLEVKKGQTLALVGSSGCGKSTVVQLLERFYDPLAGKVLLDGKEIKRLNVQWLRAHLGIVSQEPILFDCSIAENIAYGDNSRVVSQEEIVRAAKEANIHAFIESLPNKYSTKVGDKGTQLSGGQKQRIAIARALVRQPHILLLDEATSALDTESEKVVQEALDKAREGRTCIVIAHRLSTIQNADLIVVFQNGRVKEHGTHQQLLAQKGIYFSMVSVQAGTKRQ
Assay type: in vitro ADME
Outline: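 P-gp substrate potential tested in MDCK-MDR1 monolayers on Transwell supports, cultured 4-8 days; monolayers with TEER <42 ohms·cm2 discarded. Transport run in HBSS (10 mM HEPES, pH 7.4) at 37° C with compound working solution at 1 μM.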

Row | efflux ratio at 2 h, 1 µM | Compound
28 | 19.7 | Cc1ccc(-c2nnn(C[C@H]3CC3(F)F)n2)cc1NC(=O)c1cnn2ccc(-c3cn[nH]c3)cc12 (single isomer, unassigned) [Example 55, (R)—N-(5-(2-((2,2-difluorocyclopropyl)methyl)-2H-tetrazol-5-yl)-2-methylphenyl)-5-(1H-pyrazol-4-yl)pyrazolo[1,5-a]pyridine-3-carboxamide or (S)—N-(5-(2-((2,2-difluorocyclopropyl)methyl)-2H-tetrazol-5-yl)-2-methylphenyl)-5-(1H-pyrazol-4-yl)pyrazolo[1,5-a]pyridine-3-carboxamide]
29 | 24.5 | Cc1ccc(-c2nnn(C[C@@H]3CC3(F)F)n2)cc1NC(=O)c1cnn2ccc(-c3cn[nH]c3)cc12 (single isomer, unassigned) [Example 56, (S)—N-(5-(2-((2,2-difluorocyclopropyl)methyl)-2H-tetrazol-5-yl)-2-methylphenyl)-5-(1H-pyrazol-4-yl)pyrazolo[1,5-a]pyridine-3-carboxamide or (R)—N-(5-(2-((2,2-difluorocyclopropyl)methyl)-2H-tetrazol-5-yl)-2-methylphenyl)-5-(1H-pyrazol-4-yl)pyrazolo[1,5-a]pyridine-3-carboxamide]
